From PubChem BioAssay (NCI)
Several values for one entry are separate records, joined by “and”; a condition that tells them apart may be missing. Equal entries are not always repeated.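 1) Cells in 96-well plates. 2) Compound, 48 h, 5 concentrations. 3) Linear interpolation between surrounding doses. 4) Unreached endpoint = highest concentration. GI50 marks 50% less growth. The concentration for full growth arrest is given as TGI.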

Assays:
Assay in all cases: growth of human tumour cells (NCI), 48 h
SR leukemia = tested on: SR leukemia
SK-MEL-28 melanoma = tested on: SK-MEL-28 melanoma
A498 renal = tested on: A498 renal
MALME-3M melanoma = tested on: MALME-3M melanoma
HCT-116 colon = tested on: HCT-116 colon
HOP-92 NSCLC = tested on: HOP-92 NSCLC
OVCAR-5 ovarian = tested on: OVCAR-5 ovarian
MCF7 breast = tested on: MCF7 breast
786-0 renal = tested on: 786-0 renal
UACC-62 melanoma = tested on: UACC-62 melanoma

Compound	TGI (SR leukemia)	TGI (SK-MEL-28 melanoma)	TGI (A498 renal)	TGI (MALME-3M melanoma)	TGI (HCT-116 colon)	TGI (HOP-92 NSCLC)	TGI (OVCAR-5 ovarian)	TGI (MCF7 breast)	TGI (786-0 renal)	TGI (UACC-62 melanoma)	GI50 (SR leukemia)	GI50 (HOP-92 NSCLC)	GI50 (UACC-62 melanoma)	GI50 (SK-MEL-28 melanoma)	GI50 (A498 renal)	GI50 (HCT-116 colon)	GI50 (OVCAR-5 ovarian)	GI50 (MCF7 breast)
O=C(COc1cc(=O)oc2ccccc12)c1ccccc1	> 100 µM	> 100 µM	> 100 µM	> 100 µM	32 µM	33 µM	> 100 µM	> 100 µM	> 100 µM	44.1 µM	–	–	–	–	–	–	–	–
CCC1c2[nH]c3ccccc3c2C[C@H]2C(=O)NC(C)C(=O)N12 (some centres undefined)	> 100 µM	> 100 µM	> 100 µM	> 100 µM	> 100 µM	> 100 µM	> 100 µM	> 100 µM	> 100 µM	> 100 µM	–	–	–	–	–	–	–	–
CS(=O)(=O)OCCN(CCOS(C)(=O)=O)c1ccc(C=Nc2ccc(-c3csc(Cc4ccccc4)n3)cc2)c(Cl)c1	74.3 µM	> 100 µM	0.321 µM	> 72.8 µM	57.1 µM	46.5 µM	99.1 µM	50.1 µM	> 68.3 µM	> 47.7 µM	–	–	–	–	–	–	–	–
COC(=O)C1(Cc2ccc3c(c2)CCC3)Cc2ccc3c(c2C1=O)CCC3 (centres undefined)	7.76 µM	> 100 µM	46.5 µM	> 63.8 µM	> 100 µM	54 µM	> 100 µM	> 20.4 µM	> 91.3 µM	> 48.5 µM	–	–	–	–	–	–	–	–
CCO/N=C\c1ccc2oc(-c3ccccc3)cc(=O)c2c1	1.99 µM	> 100 µM	21.9 µM	43.1 µM	8.23 µM	31.5 µM	40 µM	18 µM	17.7 µM	33.9 µM	–	–	–	–	–	–	–	–
Nc1cc(C2CCCc3c2[nH]c2ccccc32)ccc1O (centres undefined)	> 100 µM	> 100 µM	> 100 µM	> 100 µM	> 100 µM	> 100 µM	> 100 µM	> 100 µM	> 100 µM	> 100 µM	–	–	–	–	–	–	–	–
Cc1cc2ncn(CC(=O)O)c2cc1C	> 100 µM	> 100 µM	> 100 µM	> 100 µM	> 100 µM	> 100 µM	> 100 µM	> 100 µM	> 100 µM	> 100 µM	–	–	–	–	–	–	–	–
CCCC(=O)OCC1OC(n2cc(F)c(=O)[nH]c2=O)CC1OC(=O)CCC (centres undefined)	> 10 µM	> 10 µM	> 9.23 µM	> 10 µM	> 10 µM	> 10 µM	> 10 µM	> 10 µM	> 10 µM	> 10 µM	–	–	–	–	–	–	–	–
CCN(CC)Cc1cc(N=Nc2c(O)ccc3c(N=Nc4ccc(O)c(CN(CC)CC)c4)c(O)ccc23)ccc1O	8.53 µM	20 µM	27.9 µM	21.5 µM	4.38 µM	22.8 µM	> 44.9 µM	13 µM	3.75 µM	16.2 µM	–	–	–	–	–	–	–	–
O=C(NC(=S)Nc1ccc(Br)cc1)c1ccc2c(c1)Sc1ccccc1O2	> 100 µM	> 100 µM	66.5 µM	> 100 µM	> 100 µM	74.9 µM	> 100 µM	> 100 µM	> 100 µM	> 100 µM	–	–	–	–	–	–	–	–
O=C(O)c1ccc2c(O)c(O)ccc2c1	13.8 µM	> 100 µM	97.9 µM	> 74.6 µM	79.7 µM	> 84.3 µM	57.5 µM	> 100 µM	43.9 µM	–	–	–	–	–	–	–	–	–
COc1cc2ncnc(NS(=O)(=O)c3cc4ccccc4s3)c2cc1OC	> 100 µM	–	> 100 µM	> 100 µM	> 100 µM	> 100 µM	> 100 µM	> 100 µM	> 100 µM	> 100 µM	–	–	–	–	–	–	–	–
COc1ccc(N2C(=O)C3ON(Cc4ccc(CC(N)=O)cc4)C(c4c5ccccc5c(C)c5ccccc45)C3C2=O)cc1 (centres undefined)	36.8 µM	> 100 µM	> 100 µM	> 100 µM	56.9 µM	> 100 µM	83.8 µM	46.6 µM	> 100 µM	> 100 µM	–	–	–	–	–	–	–	–
N=C1OC(CN2CCN(c3ccccc3)CC2)CN1C(=O)Nc1ccccc1 (centres undefined)	> 100 µM	> 100 µM	> 100 µM	> 100 µM	> 100 µM	> 100 µM	> 100 µM	> 100 µM	> 100 µM	> 100 µM	–	–	–	–	–	–	–	–
Cc1cc(=O)[nH]c2cc(NC(=O)C(C)NC(=O)C(C)NC(=O)C(C)NC(=O)OC(C)(C)C)ccc12 (centres undefined)	> 15 µM	> 15 µM	> 15 µM	–	> 15 µM	> 15 µM	> 15 µM	> 15 µM	> 15 µM	> 15 µM	–	–	–	–	–	–	–	–
COc1c(C(=O)/C(=N/Nc2ccc(C(=O)O)cc2)C(C)=O)c(O)cc2occc12	> 100 µM	> 100 µM	–	> 100 µM	> 100 µM	> 100 µM	> 100 µM	> 100 µM	> 100 µM	> 100 µM	–	–	–	–	–	–	–	–
ClCCCN1CCN(CCCl)CC1	–	> 1000 µM	774 µM	390 µM	747 µM	–	737 µM	736 µM	427 µM	92 µM	3.44 µM	0.0248 µM	20 µM	–	–	–	–	–
COc1ccc2[nH]c3ccc4cc[n+](CCN5CCC(C6CCN(CC[n+]7ccc8ccc9[nH]c%10ccc(OC)cc%10c9c8c7)CC6)CC5)cc4c3c2c1	50 µM	> 50 µM	> 53.8 µM	50 µM	50 µM and > 57.1 µM	28.1 µM and 5.47 µM	50 µM and > 91.1 µM	50 µM and > 28.3 µM	50 µM	50 µM and 17.7 µM	–	27.7 µM	31 µM	> 50 µM	> 50 µM	0.374 µM	39.2 µM	0.313 µM and 0.488 µM
O=C1/C(=C/c2cccc([N+](=O)[O-])c2)N=C(c2ccccc2)N1c1nc2ccc(Sc3ccccc3)cc2[nH]1	> 100 µM	> 100 µM	> 100 µM	> 100 µM	> 100 µM	> 100 µM	> 100 µM	> 100 µM	> 100 µM	> 100 µM	–	–	–	–	–	–	–	–
